Laboratory results taken from publication PMC4774911, “Biochemical Screening of Five Protein Kinases from Plasmodium falciparum against 14,000 Cell-Active Compounds” (PLoS ONE, 2016).
Like-named read-outs stand apart in the source and are kept apart here.

Key:
P. falciparum 3D7 cells = conditions: 3D7, cited from earlier work
PKG = PKG (Plasmodium falciparum, UniProt Q8I719); test: PKG IC50 (supplementary data file); assay type: biochemical
Excerpt: Supplement pone.0149996.s003.xls, sheet "combined_1_sorted"

3D7 PFLDH [1] = tested on: 3D7 PFLDH; parameters: method as in downloaded from ChEMBL; conditions: ref downloaded from ChEMBL; cited from earlier work
HepG2 cells = conditions: cited from earlier work
DD2 [2] = tested on: DD2; parameters: method as in downloaded from ChEMBL; conditions: ref downloaded from ChEMBL; cited from earlier work
[3] = molecular target: T1, Plasmodium falciparum calcium-dependent protein kinase 1 (CDPK1) (Plasmodium falciparum, UniProt P62344); test: CDPK1 Kinase-Glo ATP-consumption screen and dose-response; assay type: biochemical; conditions: hits below 1 uM; read-out: CDPK1 IC50
T1 construct: 6-Histidine (N); made in house
T1 sequence (P62344 whole entry): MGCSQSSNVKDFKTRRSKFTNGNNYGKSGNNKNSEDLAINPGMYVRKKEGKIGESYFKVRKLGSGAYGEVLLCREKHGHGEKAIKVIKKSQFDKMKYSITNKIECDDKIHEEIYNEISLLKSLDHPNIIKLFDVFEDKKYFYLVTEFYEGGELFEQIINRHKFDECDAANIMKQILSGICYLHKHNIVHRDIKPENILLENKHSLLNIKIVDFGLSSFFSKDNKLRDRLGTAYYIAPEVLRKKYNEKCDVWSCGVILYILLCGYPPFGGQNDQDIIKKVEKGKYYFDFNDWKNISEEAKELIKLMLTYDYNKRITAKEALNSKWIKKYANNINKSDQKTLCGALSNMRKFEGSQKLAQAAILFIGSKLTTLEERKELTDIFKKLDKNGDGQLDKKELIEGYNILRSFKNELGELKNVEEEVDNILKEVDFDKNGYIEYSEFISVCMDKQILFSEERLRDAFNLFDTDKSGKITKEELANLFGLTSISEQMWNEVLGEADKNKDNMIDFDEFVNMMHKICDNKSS
Outline: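 ATP consumption by recombinant P. falciparum CDPK4 or CDPK1 measured as residual ATP by Kinase-Glo luminescence, with 40 μM Syntide-2 substrate and 90 min incubation stopped with 5 mM EGTA. Single-point screen at 1 μM final, followed by dose-response; no-substrate wells as negative control.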

[4] = molecular target: T2, Plasmodium falciparum protein kinase 6 (PK6) (Plasmodium falciparum, UniProt Q8IDW1); test: biochemical; conditions: hits below 1 uM; read-out: PK6 IC50
T2 construct: 6-Histidine (N); made in house
T2 sequence (Q8IDW1 1-305): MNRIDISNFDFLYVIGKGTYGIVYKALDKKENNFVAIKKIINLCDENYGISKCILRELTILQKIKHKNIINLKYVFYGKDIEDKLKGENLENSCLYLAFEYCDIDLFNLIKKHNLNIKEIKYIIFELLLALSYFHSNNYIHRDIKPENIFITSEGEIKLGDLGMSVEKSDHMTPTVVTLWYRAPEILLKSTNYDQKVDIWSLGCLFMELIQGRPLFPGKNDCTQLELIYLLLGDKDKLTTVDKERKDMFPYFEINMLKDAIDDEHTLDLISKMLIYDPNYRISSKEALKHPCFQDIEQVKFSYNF

DD2 [5] = tested on: DD2; parameters: method as in F.J. Gamo et al., Nature 2010; conditions: downloaded from ChEMBL, ref F.J. Gamo et al., Nature 2010; cited from earlier work
3D7 PFLDH [6] = tested on: 3D7 PFLDH; parameters: method as in F.J. Gamo et al., Nature 2010; concentration or dose not given beside the values; conditions: downloaded from ChEMBL, ref F.J. Gamo et al., Nature 2010; cited from earlier work
[7] = HEPG2, ref downloaded from ChEMBL
[8] = downloaded from ChEMBL, ref F.J. Gamo et al., Nature 2010

PKG, sequence (Q8I719 whole entry): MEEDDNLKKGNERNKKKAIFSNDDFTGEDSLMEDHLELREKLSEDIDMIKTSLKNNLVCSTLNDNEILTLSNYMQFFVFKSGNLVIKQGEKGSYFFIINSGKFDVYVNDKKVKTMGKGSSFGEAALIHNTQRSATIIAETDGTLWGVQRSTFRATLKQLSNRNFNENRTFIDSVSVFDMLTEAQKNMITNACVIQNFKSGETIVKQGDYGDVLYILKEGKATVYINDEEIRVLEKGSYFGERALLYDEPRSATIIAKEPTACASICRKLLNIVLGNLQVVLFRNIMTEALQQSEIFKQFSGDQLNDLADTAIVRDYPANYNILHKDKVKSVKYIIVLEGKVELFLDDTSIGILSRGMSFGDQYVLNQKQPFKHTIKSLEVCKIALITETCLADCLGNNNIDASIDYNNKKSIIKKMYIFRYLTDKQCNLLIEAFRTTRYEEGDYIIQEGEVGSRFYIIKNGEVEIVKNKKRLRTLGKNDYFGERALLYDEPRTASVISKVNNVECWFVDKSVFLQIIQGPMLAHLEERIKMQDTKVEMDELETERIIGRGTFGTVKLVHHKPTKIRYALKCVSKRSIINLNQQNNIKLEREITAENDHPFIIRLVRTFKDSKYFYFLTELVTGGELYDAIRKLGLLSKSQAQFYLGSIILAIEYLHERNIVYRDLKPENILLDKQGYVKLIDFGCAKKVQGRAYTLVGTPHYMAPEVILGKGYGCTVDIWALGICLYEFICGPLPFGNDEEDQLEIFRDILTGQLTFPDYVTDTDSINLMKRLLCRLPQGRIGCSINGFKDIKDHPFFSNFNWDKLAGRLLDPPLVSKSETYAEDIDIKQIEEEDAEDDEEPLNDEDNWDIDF

SMILES	PCT_IHB_3D7 (P. falciparum 3D7 cells; ref downloaded from ChEMBL)	pXC50_3D7 (P. falciparum 3D7 cells; ref downloaded from ChEMBL)	IC50 (PKG)	PCT_INHIB_3D7_PFLDH (3D7 PFLDH [1])	PCT_INHIB_HEPG2 (HepG2 cells; [7])	PCT_INHB_DD2 (DD2 [2])	IC50 [3]	IC50 [4]	PCT_IHB_3D7 (P. falciparum 3D7 cells; [8])	pXC50_3D7 (P. falciparum 3D7 cells; [8])	PCT_INHB_DD2 (DD2 [5])	PCT_INHIB_HEPG2 (HepG2 cells; HepG2, downloaded from ChEMBL, ref F.J. Gamo et al., Nature 2010)	PCT_INHIB_3D7_PFLDH (3D7 PFLDH [6])
O=C(NC1CC1)c1ccc(Nc2nccc(-c3c(-c4cccc(NC(=O)c5c(F)cccc5F)c4)nn4ccccc34)n2)cc1 [TCMDC-136002]	94	6.386	> 10000 nM	0	84	96	26 nM						
COc1c(CN2CCCC2)cccc1-c1cc2c(-c3ccc(C(=O)O)c(C(C)C)c3)ccnc2[nH]1.O=C(O)C(F)(F)F [TCMDC-135050]	99	6.357		0	56	98		541 nM					
NCCNS(=O)(=O)c1ccc(-c2ccnc3[nH]c(-c4ccncc4)cc23)cc1.O=C(O)C(F)(F)F [TCMDC-133364]	96	6.076		3	0	95	422 nM	207 nM					
NS(=O)(=O)c1ccc(Nc2nccc(-c3c(-c4cccc(NC(=O)c5c(F)cccc5F)c4)nn4ccccc34)n2)cc1 [TCMDC-135528]	93	6.118		0	83	89	48 nM	140 nM					
CN1CCN(Cc2ccc(-c3ccc4c(Nc5ccc(Cl)cc5F)ccnc4c3)o2)CC1 [TCMDC-138395]	100	6.811		0	47	100	406 nM						
CN(C)Cc1ccc(-c2ccc3c(Nc4ccc(Cl)cc4F)ccnc3c2)o1 [TCMDC-138389]	100	6.6173		0	13	99	185 nM						
CN(C)CCNCc1cccc(-c2ccc3c(Nc4ccc(Oc5ccccn5)cc4)ccnc3c2)c1 [TCMDC-138493]	99	6.633		2	27	100	845 nM						
COc1c(CN2CCOCC2)cccc1-c1cc2c(-c3ccc(C(=O)O)c(C(C)C)c3)ccnc2[nH]1.O=C(O)C(F)(F)F [TCMDC-135049]	98	6.1293		0	44	90		695 nM					
COCCNCc1cccc(-c2ccc3c(Nc4ccc(Oc5cccnc5)cc4)ccnc3c2)c1 [TCMDC-138487]	100	6.749		0	58	99	913 nM						
CS(=O)(=O)CCNCc1cccc(-c2ccc3c(Nc4ccc(Oc5cccnc5)cc4)ccnc3c2)c1 [TCMDC-138488]	100	6.847		4	27	99	966 nM						
Cc1ccc(O)cc1Nc1ccnc2cc(-c3cccc(CNCCS(C)(=O)=O)c3)ccc12 [TCMDC-138472]	99	6.078		2	9	100	125 nM						
COc1ccc(Nc2ncc3c(-c4cccc(NC(=O)Cc5cccc(O)c5)c4)c[nH]c3n2)cc1OC [TCMDC-135247]	100	6.156		0	44	96	312 nM						
Cl.NCCCOc1cnc(-c2ccccc2)c2nc(-c3nonc3N)n(CCc3ccccc3)c12 [TCMDC-136216]			> 10000 nM				47 nM		93%	5.895	86%	56%	0%
